≈ marks a conversion by molar mass, not a printed value. Like-named read-outs stand apart in the source and are kept apart here.
Legend:
MSSA biofilm = assay: Antibiofilm assay (biofilm formation); assay type: cell-based, S. aureus
KYSE 450 (esophageal) = system: KYSE 450 (esophageal); set-up: method as in PMID 32009586; details: read-out: IC50 (proliferation); cited from earlier work
Gram-positive bacteria = assay: MIC, panel of Gram-positive bacteria; assay type: cell-based; details: all Gram-positive bacteria tested
MCF7 (breast) = system: MCF7 (breast); set-up: method as in PMID 26397392; details: at 45 µg/mL; cited from earlier work
[1] = system: Galleria mellonella larvae; assay: Systemic toxicity in Galleria mellonella larvae; assay type: in vivo
Experimental: The systemic toxicity assay was performed to evaluate the acute toxic effects of LCC, following the procedures described by Megaw [63]. For the experiment, 10 healthy larvae from G. mellonella were randomly selected for each concentration test, with a weight range between 0.2 g and 0.3 g and without melanization aspects. The larvae were chilled on ice for 20 min and had their prolegs cleaned with 70% ethanol. […] Five microliters of the solution were injected into the hemocoel of each larva through the last left proleg using a 25 µL Hamilton syringe. After the administration, the larvae were incubated at 37 °C and their survival was monitored in selected intervals over 72 h. The larvae unable to move when touched and showing elevated levels of melanization were counted as dead. Experiments were performed in triplicate.

HN22 (oral) = system: HN22 (oral); set-up: method as in PMID 30129052; details: read-out: IC50 (proliferation); cited from earlier work
S. mutans (ATCC 25175) = assay: MIC, broth microdilution with resazurin; assay type: cell-based; details: ATCC25175; Streptococcus mutans; mean of triplicates
T24 (bladder) = system: T24 (bladder); set-up: method as in PMID 26397392; details: at 45 µg/mL; cited from earlier work
HCT116 (colorectal) = system: HCT116 (colorectal); set-up: method as in PMID 38148556; details: read-out: IC50 (proliferation); cited from earlier work
NADH-oxidase = molecular target: NADH-oxidase; set-up: method as in PMID 9621457; details: cited from earlier work
[2] = system: Staphylococcus aureus (ATCC 29213) membrane; assay: Membrane disruption assay, fluorescence microscopy with SYTO9 and propidium iodide; details: S. aureus; LCC at MIC 12.5 µg/mL, 15 min; nisin positive control
Experimental: Two fluorescent dyes propidium iodide (PI) and SYTO9 were added, which stain cells with disrupted membranes (in pink) and whole membranes (in blue).
The assay was performed using Staphylococcus aureus (ATCC 29213), an MSSA strain. Bacterial cells were cultivated in solid TSA broth (tryptone soya) at 36 °C and stirred at 200 rpm. […] Cells were stained with the Live/Dead BacLight Kit (Thermo-Scientific® L7012, Carlsbad, CA, USA), which is composed of two nucleic acid dyes: SYTO9, which stains all cells, and propidium iodide, which penetrates cells with damaged membranes [60]. The stained cells were immobilized on agarose-covered slides as described by Martins [61]. Untreated S. aureus cells with intact membranes were used as negative controls, and S. aureus cells exposed to nisin (Sigma-Aldrich® N5764, St. Louis, MO, USA) were used as positive controls for membrane damage [62]. Microscopic analyses were carried out using an Olympus BX-61 microscope, equipped with a monochromatic OrcaFlash-2.8 camera (Hamamatsu, Japan), and the software CellSens Dimension Version 11 (Olympus).

[3] = system: S. pneumoniae (ATCC 6305); assay: MIC, broth microdilution with resazurin; assay type: cell-based; details: ATCC6305; Streptococcus pneumoniae; mean of triplicates
MSSA (ATCC 6538) = assay: MIC, broth microdilution with resazurin; assay type: cell-based; details: Staphylococcus aureus (MSSA), mean of triplicates
[4] = system: Escherichia coli (ATCC 25922); assay: MIC, broth microdilution with resazurin; assay type: cell-based
[5] = molecular target: NADH-cytochrome c reductase; set-up: method as in PMID 9621457; details: cited from earlier work
[6] = system: P. aeruginosa (ATCC 27853); assay: MIC, broth microdilution with resazurin; assay type: cell-based; details: Pseudomonas aeruginosa, mean of triplicates
[7] = system: M. tuberculosis (ATCC 27294); assay: Antimycobacterial MIC, resazurin microtiter assay; assay type: cell-based; details: ATCC27294; Mycobacterium tuberculosis; mean of triplicates
MRSA (ATCC BAA44) = assay: MIC, broth microdilution with resazurin; assay type: cell-based; details: Staphylococcus aureus (MRSA), mean of triplicates
KYSE 70 (esophageal) = system: KYSE 70 (esophageal); set-up: method as in PMID 32009586; details: read-out: IC50 (proliferation); cited from earlier work
KYSE 510 (esophageal) = system: KYSE 510 (esophageal); set-up: method as in PMID 32009586; details: read-out: IC50 (proliferation); cited from earlier work
H. pylori (ATCC 43526) = assay: MIC, broth microdilution with resazurin; assay type: cell-based; details: Helicobacter pylori, mean of triplicates
M. kansasii (ATCC 12478) = assay: Antimycobacterial MIC, resazurin microtiter assay; assay type: cell-based; details: ATCC12478; Mycobacterium kansasii; mean of triplicates
[8] = system: E. coli respiratory chain; set-up: method as in PMID 9621457; details: cited from earlier work
KYSE 410 (esophageal) = system: KYSE 410 (esophageal); set-up: method as in PMID 32009586; details: read-out: IC50 (proliferation); cited from earlier work
MRSA biofilm = assay: Antibiofilm assay (biofilm formation); assay type: cell-based, S. aureus
E. faecalis (ATCC 1299) = assay: MIC, broth microdilution with resazurin; assay type: cell-based; details: ATCC1299; Enterococcus faecalis; mean of triplicates
[9] = system: K. pneumoniae (ATCC 23883); assay: MIC, broth microdilution with resazurin; assay type: cell-based; details: Klebsiella pneumoniae, mean of triplicates
[10] = system: S. epidermidis (ATCC 14990); assay: MIC, broth microdilution with resazurin; assay type: cell-based; details: ATCC14990; Staphylococcus epidermidis; mean of triplicates
HepG2 (liver) = system: HepG2 (liver); set-up: method as in PMID 32578448; details: read-out: IC50 (proliferation); cited from earlier work
NADH-FMN oxidoreductase = molecular target: NADH-FMN oxidoreductase; set-up: method as in PMID 9621457; details: cited from earlier work
S. sobrinus (ATCC 33478) = assay: MIC, broth microdilution with resazurin; assay type: cell-based; details: ATCC33478; Streptococcus sobrinus; mean of triplicates
A549 (lung) = system: A549 (lung); set-up: method as in PMID 26397392; details: at 45 µg/mL; cited from earlier work
HSC4 (oral) = system: HSC4 (oral); set-up: method as in PMID 30129052; details: read-out: IC50 (proliferation); cited from earlier work
[11] = system: S. sanguinis (ATCC 10556); assay: MIC, broth microdilution with resazurin; assay type: cell-based; details: ATCC10556; Streptococcus sanguinis; mean of triplicates
KYSE 30 (esophageal) = system: KYSE 30 (esophageal); set-up: method as in PMID 32009586; details: read-out: IC50 (proliferation); cited from earlier work

For `COc1c(/C=C/C(=O)c2ccc(O)cc2)ccc(O)c1CC=C(C)C` [LCC, licochalcone C], the “inhibition of biofilm formation” value (MSSA biofilm) is given as 75%, the “MBIC50 (minimum biofilm inhibitory concentration)” value (MSSA biofilm; MSSA biofilm formation) is given as 6.25 µg/mL and the IC50 (KYSE 450 (esophageal)) is given as 28 µM. The “MIC, range over Gram-positive bacteria” value (Gram-positive bacteria) was 6.2 to 50.0 µg/mL, the proliferation inhibition (MCF7 (breast)) was 47% and the lethality to larvae ([1]; 100 µg/mL after 80 h treatment) was “not lethal”. The larvae survival ([1]; LCC at 12.5, 25, 50, and 100 µg/mL, over a period of 72 h) was 100%, the IC50 (HN22 (oral)) was 23.8 µM and the MIC (S. mutans (ATCC 25175)) was 12.5 µg/mL (≈ 36.9 µM). The proliferation inhibition (T24 (bladder)) was 68%, the IC50 (HCT116 (colorectal)) was 16.6 µM and the IC50 (NADH-oxidase) was 3 µM. For the same compound, the “percentage of cells with permeabilized membrane (stained with both fluorophores)” value [2] was 75%, the MIC [3] was 50 µg/mL (≈ 148 µM) and the MIC (MSSA (ATCC 6538)) was 12.5 µg/mL (≈ 36.9 µM). The MIC (MSSA (ATCC 6538); read-out: MIC) was 12.5 µg/mL (≈ 36.9 µM), the MIC ([4]; ATCC25922, mean of triplicates, read-out: MIC) was over 400 µg/mL and the MIC ([4]; mean of triplicates) was over 400 µg/mL. The IC50 [5] was 29.6 µM, the MIC ([6]; ATCC27853, read-out: MIC) was over 400 µg/mL and the MIC [6] was over 400 µg/mL. It also gave an MIC [7] of 31.2 µg/mL (≈ 92.2 µM), an MIC (MRSA (ATCC BAA44)) of 12.5 µg/mL (≈ 36.9 µM) and an MIC (MRSA (ATCC BAA44); read-out: MIC) of 12.5 µg/mL (≈ 36.9 µM). For the same compound, the IC50 (KYSE 70 (esophageal)) was 36 µM, the IC50 (KYSE 510 (esophageal)) was 26 µM and the MIC (H. pylori (ATCC 43526); ATCC43526, read-out: MIC) was 25 µg/mL (≈ 73.9 µM). For the same compound, the MIC (H. pylori (ATCC 43526)) was 25 µg/mL (≈ 73.9 µM), the MIC (M. kansasii (ATCC 12478)) was 125 µg/mL (≈ 369 µM) and the “inhibition of respiratory chain” value [8] was “did not inhibit”. The IC50 (KYSE 410 (esophageal)) was 19 µM, the “MBIC50 (minimum biofilm inhibitory concentration)” value (MRSA biofilm; MRSA biofilm formation) was 6.25 µg/mL and the “inhibition of biofilm formation” value (MRSA biofilm; MRSA, at MBIC50 (6.25 μg/mL)) was 87%. The MIC (E. faecalis (ATCC 1299)) was 50 µg/mL (≈ 148 µM), the MIC ([9]; ATCC23883, read-out: MIC) was over 400 µg/mL and the MIC [9] was over 400 µg/mL. The MIC [10] was 6.2 µg/mL (≈ 18.3 µM), the IC50 (HepG2 (liver)) was 50.8 µM and the IC50 (NADH-FMN oxidoreductase) was over 100 µM. The MIC (S. sobrinus (ATCC 33478)) was 12.5 µg/mL (≈ 36.9 µM), the proliferation inhibition (A549 (lung)) was 40% and the IC50 (HSC4 (oral)) was 27.1 µM. The MIC [11] was 6.2 µg/mL (≈ 18.3 µM) and the IC50 (KYSE 30 (esophageal)) was 28 µM.

From publication PMC11124413, “Synthesis, Antibacterial Effects, and Toxicity of Licochalcone C” (Pharmaceuticals, 2024)
